Measured values: the supplement of paper PMC5412046
Structures can show the parent of a compound that is named as a salt.

Tests used:
SB.mhdgc-1 = assay: AC50 for growth inhibition (viability) (log10 M); higher = less potent; conditions: SB.mhdgc-1 (hereditary c.1380delA CDH1 gastric cancer)
Method in brief: (§1)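 Dosing used a pintool to add 23 nL compound in DMSO to 1536 wells, each with 500 hereditary or sporadic patient-derived gastric cancer cells, across 11 threefold dilutions starting at a final 46 μM. Viability after 48 h was measured by CellTiter-Glo luminescence on a ViewLux. The log half-maximal activity concentration derives from a four-parameter fit of that viability normalised to DMSO, limited to high-quality curve classes.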

SB.msgc-1 = assay: as above; conditions: SB.msgc-1 (sporadic gastric cancer)
Method in brief: as §1

Row | SMILES | AC50 for growth inhibition (log10 M) (SB.mhdgc-1) | AC50 for growth inhibition (log10 M) (SB.msgc-1)
1 | CN1CC[C@H]([C@@H](O)C1)C2=C(O)C=C(O)C3=C2O\C(=C/C3=O)C4=CC=CC=C4Cl | -7.08 | -7.13
2 | COC1=C(OCCCN2CCOCC2)C=CC\3=C1/N=C(/NC(=O)C4=CN=C(N)N=C4)N5CC/N=C35 [BAY-80-6946] | -6.84 | -7.44
3 | COC(=O)Nc1nc2cc(C(=O)c3ccc(F)cc3)ccc2[nH]1 [Flubendazole] | -5.23 | -6.23
4 | C=CCc1cccc(/C=N/NC(=O)CN2CCN(Cc3ccccc3)CC2)c1O [PAC-1] | -5.13 | -5.23
5 | COC1=C(CC=C(C)C)C2=C(\C=C/C(=O)O2)C=C1 [Osthol] | -5.78 | -5.53
6 | OCCN1CCN(CCCN2c3ccccc3Sc3ccc(C(F)(F)F)cc32)CC1 [Fluphenazine hydrochloride] | -4.83 | -4.78
7 | CC(C)=CC[C@@H](O)C/1=C/C(=O)C2=C(O)C=CC(=C2C1=O)O [Shikonin] | -6.13 | -5.83
8 | CCCn1c(=O)c2[nH]c(C34CC5CC3C[C@@H](C5)C4)nc2n(CCC)c1=O [Rolofylline] | -4.68 | -4.83
9 | CC1(C)CCC[C@]2(C)[C@H]3CC(=O)O[C@]3(C)CC[C@@H]12 [Sclareolide] | -5.03 | -4.78
10 | CN1C(=O)\C(=C/C(=C1/NC2=C(F)C=C(I)C=C2)C(=O)NOCCO)C [AZD-8330] | -4.78 | -7.58
11 | CCc1ccc(C(=O)Nc2cc(CN3CCN(C)CC3)cc(C(F)(F)F)c2)cc1C#Cc1cnc2ccnn2c1 [PRP003-013] | -5.13 | -4.78
12 | Cc1c(O)cccc1C(=O)N[C@@H](CSc1ccccc1)[C@H](O)CN1C[C@H]2CCCC[C@H]2C[C@H]1C(=O)NC(C)(C)C [Viracept] | -4.73 | -4.73
13 | CCCC1=NC(=C2[N]1NC(=N\C2=O)/C3=CC(=CC=C3OCC)[S+]([O-])(=O)N4CCN(CC)CC4)C [Vardenafil] | -4.73 | -4.83
14 | CC[C@H](CC#N)OC(=O)N[C@@H](C)c1cccc(NC(=O)Nc2ccc(-c3cnco3)c(OC)c2)c1 [AVN-944] | -5.88 | -5.23
15 | COc1cc2ncnc(Nc3cccc(Cl)c3)c2cc1OC [AG-1478] | -7.43 | -6.23
16 | CCOc1cc(C(=O)Nc2ccc(Cl)c(-c3nc4ccccc4[nH]3)c2)cc(OCC)c1OCC [SANT-2] | -5.93 | -5.18
17 | COc1cc(C[C@@H](CO)[C@H](CO)Cc2ccc(O)c(OC)c2)ccc1O [Secoisolariciresinol] | -6.38 | -6.63
18 | CC(C)=CCC/C(C)=C/CC/C(C)=C/CSc1ccccc1C(=O)O [Salirasib] | -6.43 | -5.58
19 | Cc1ccc(NC(=O)C2(c3ccc4c(c3)OC(F)(F)O4)CC2)nc1-c1cccc(C(=O)O)c1 [Lumacaftor] | -6.73 | -7.63
20 | COc1ccccc1[C@H](c1cccc2ccccc12)[C@@](C)(C#N)C(=O)N1CCC(c2cccc(C(F)(F)F)c2)CC1 | -5.18 | -5.48
21 | C[C@@H]1C[C@@H]([C@H](O)CC2CC(=O)NC(=O)C2)C(=O)[C@@H](C)C1 [cycloheximide] | -6.73 | -6.53
22 | CN1CCN(CCCN2c3ccccc3Sc3ccc(C(F)(F)F)cc32)CC1 [Stelazine  trifluoperzine] | -5.63 | -5.08
23 | C[C@H]([C@H]1C\C(=C(CO)/C(=O)O1)C)[C@H]2CC[C@H]3[C@@H]4C[C@H]5O[C@]56[C@@H](O)\C=C/C(=O)[C@]6(C)[C@H]4CC[C@]23C [Withaferin A] | -5.68 | -5.78
24 | CC1(C)CCC(=C(CN2CCN(CC2)C3=CC=C(C=C3)C(=O)N[S+]([O-])(=O)C4=CC(=C(N[C@H](CCN5CCOCC5)CSC6=CC=CC=C6)C=C4)[S+]([O-])(=O)C(F)(F)F)\C1)/C7=CC=C(Cl)C=C7 [Navitoclax] | -6.13 | -5.13
25 | CC(C)c1cc(C(=O)N2Cc3ccc(CN4CCN(C)CC4)cc3C2)c(O)cc1O | -6.53 | -6.78
26 | Cn1cnc2c(F)c(Nc3ccc(Br)cc3Cl)c(C(=O)NOCCO)cc21 [Selumetinib] | -5.38 | -5.18
27 | Cc1cnc(NC(=O)Nc2cc(Br)c(C)cc2OC[C@@H]2CNCCO2)cn1 [Rabusertib] | -4.88 | -5.88

Row | SMILES | AC50 for growth inhibition (log10 M) (SB.mhdgc-1) | AC50 for growth inhibition (log10 M) (SB.msgc-1)
28 | Cc1ccc(C)c(OCCCC(C)(C)C(=O)O)c1 [Gemfibrozil] | -4.78 | -5.13
29 | CC(/C=C/C(=O)NO)=C\[C@@H](C)C(=O)c1ccc(N(C)C)cc1 [Trichostatin A] | -5.88 | -6.13
30 | Cc1ccc(C(=O)Nc2ccc(CN3CCN(C)CC3)c(C(F)(F)F)c2)cc1C#Cc1cnc2cccnn12 [Ponatinib] | -5.78 | -4.88
31 | Oc1ccc(-c2ccc(-c3cc(Nc4cccc(CNC5CC5)c4)[nH]n3)cc2)c(O)c1 [TCS-2312] | -6.28 | -5.03
32 | O=C(/C=C/c1ccc(CN(CCO)CCc2c[nH]c3ccccc23)cc1)NO [Dacinostat] | -5.88 | -6.63
33 | COc1cc2ncn(-c3cc(OCc4ccccc4C(F)(F)F)c(C(N)=O)s3)c2cc1OC | -5.43 | -5.63
34 | COc1ccc(/C=C\c2cc(OC)c(OC)c(OC)c2)cc1NC(=O)[C@H](N)CO [Ombrabulin] | -7.78 | -8.38
35 | COC1=CC2=C(C=C1OC)[C@H]3[C@@H](CO2)OC4=C(C=CC5=C4\C=C/C(C)(C)O5)C3=O [Deguelin] | -5.38 | -5.23
36 | O=C1c2c(O)cc(O)cc2O[C@H](c2cc(O)c(O)c(O)c2)[C@H]1O [Dihydromyricetin] | -5.33 | -5.23
37 | CC(C)Cn1cnc2c(N)nc3ccccc3c21 [Imiquimod] | -5.93 | -4.73
38 | C[S+](=O)([O-])N1CCc2c(-c3cnc(N)nc3)nc(N3CCOCC3)nc21 | -5.68 | -6.43
39 | O=C(Nc1nc2ccccc2n1CCN1CCOCC1)c1cccc([N+](=O)[O-])c1 | -4.83 | -4.83
40 | COc1cc(F)c(C(C)C)cc1-c1ccc(C(F)(F)F)cc1CN1C(=O)O[C@H](c2cc(C(F)(F)F)cc(C(F)(F)F)c2)[C@@H]1C [Anacetrapib] | -5.13 | -5.48
41 | COc1c(C)c2c(c(O)c1C/C=C(\C)CCC(=O)OCCN1CCOCC1)C(=O)OC2 [Mycophenolate mofetil] | -5.88 | -5.03
42 | Cl.Nc1ccn([C@@H]2O[C@H](CO)[C@@H](O)C2(F)F)c(=O)n1 [Gemcitabine] | -7.23 | -7.53
43 | CC(C)n1nc(-c2cc3cc(O)ccc3[nH]2)c2c(N)ncnc21 [PP-242] | -6.93 | -5.28
44 | O=C(NOCC1CC1)c1ccc(F)c(F)c1Nc1ccc(I)cc1Cl | -4.78 | -4.83
45 | COc1cc(NC(=O)c2ccc(-c3ccc(Cl)cc3)o2)cc(OC)c1 | -5.73 | -5.58
46 | CCOC(=O)\C1=C(/C)N\C2=C(C1C3=CC=C(C=C3)C4=CC=CC=C4)\C(=O)CC(C)(C)C2 (stereo unspecified) [ITD-1] | -4.83 | -4.73
47 | O=C1\C=C(/OC2=C1C=CC=C2C3=CC=CC=C3)N4CCOCC4 | -5.18 | -4.73
48 | Cn1cnc2c1c(=O)[nH]c(=O)n2C [Theobromine] | -4.63 | -4.78
49 | Cc1cc(Nc2cc(CN3CCOCC3)c3nc(C)c(Cc4ccc(Cl)cc4F)n3n2)[nH]n1 [Gandotinib] | -4.68 | -4.73
50 | CC(C)(C)c1[nH]cnc1/C=c1\[nH]c(=O)/c(=C/c2ccccc2)[nH]c1=O [Plinabulin] | -7.62 | -6.07
51 | C[C@@]12OC(=O)[C@@]1(NC(=O)[C@@H]2CCCl)[C@@H](O)[C@H]\3CCC\C=C3 [Marizomib] | -7.68 | -7.48
52 | COC1=CC(=CC(=C1)C2=CC=C3N=CC\4=C(N(C(=O)\C=C4)C5=CC(=C(C=C5)N6CCNCC6)C(F)(F)F)C3=C2)OC | -5.33 | -5.43
53 | COc1ccc(Cc2nccc3cc(OC)c(OC)cc23)cc1OC [Papaverine hydrochloride] | -6.88 | -4.73
